Results reported in ChEMBL document CHEMBL1201862, “PubChem BioAssay data set” (2004).
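96-well plates; 48 h exposure; 5 concentrations. Endpoints by linear interpolation between flanking doses. Not reached: highest tested concentration assigned. The concentration for 50% growth inhibition is given as GI50.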 Activity calls are given as the source filed them. No stated cut-off is given here; in the data, active = GI50 up to about 1.1 µM and inactive = higher.

How the values were obtained:
Assay in all cases: DTP human tumour cell line panel, 48 h
[1] = system: RXF 631
[2] = system: HOP-18
[3] = system: M19-MEL
[4] = system: SNB-78
[5] = system: KM-20L2
[6] = system: XF498
[7] = system: MCF7
[8] = system: T47D
[9] = system: BT-549

Row | SMILES | GI50 [1] | GI50 [2] | GI50 [3] | GI50 [4] | GI50 [5] | GI50 [6] | GI50 [7] | GI50 [8] | GI50 [9]
1 | Cn1c(=O)c2c(nc3n2C(CCl)CO3)n(C)c1=O (centres undefined) | > 100 µM (inactive) | > 100 µM (inactive) | > 100 µM (inactive) | > 100 µM (inactive) | – | – | – | – | –
2 | CC(=O)NNc1nc(C)c(C(=O)/C=C/c2cccc([N+](=O)[O-])c2)s1 | > 100 µM (inactive) | > 100 µM (inactive) | > 100 µM (inactive) | > 100 µM (inactive) | > 100 µM (inactive) | – | – | – | –
3 | O=NN1C(c2ccccc2)C2CCCC(C2=O)C1c1ccccc1 (centres undefined) | – | 8.73 µM (inactive) | 18.9 µM (inactive) | 40.3 µM (inactive) | 16 µM (inactive) | 13.6 µM (inactive) | 20.7 µM (inactive) | – | –
4 | C/C(CC(=O)Nc1cc(Cl)c(Cl)cc1Cl)=N\NC(N)=O | > 100 µM (inactive) | – | > 100 µM (inactive) | – | > 100 µM (inactive) | > 100 µM (inactive) | – | – | –
5 | CC(C)(C)c1ccc(OCCOCCOc2ccc(C(C)(C)C)cc2S(N)(=O)=O)c(S(N)(=O)=O)c1 | > 100 µM (inactive) | > 100 µM (inactive) | > 100 µM (inactive) | > 100 µM (inactive) | – | – | – | – | –
6 | Cc1c(N)nc(C2CC(=O)N2CC(N)C(N)=O)nc1C(=O)NC(C(=O)NC(C)C(O)C(C)C(=O)NC(C(=O)NCCc1nc(-c2nc(C(=O)NCCNCC(C)O)cs2)cs1)C(C)O)C(OC1OC(CO)C(O)C(O)C1OC1OC(CO)C(O)C(OC(N)=O)C1O)c1c[nH]cn1 (centres undefined) | – | 13.4 µM (inactive) | 5.04 µM (inactive) | > 89.3 µM (inactive) | 58.6 µM (inactive) | 1.35 µM (inactive) | 13.8 µM (inactive) | > 5 µM (inactive) | > 50 µM (inactive)
7 | Cc1ccc(NC(=O)SCCC(=O)O)cc1 | > 100 µM (inactive) | – | – | > 100 µM (inactive) | > 100 µM (inactive) | – | – | – | –
8 | CCN1C(=O)N2C(OC)c3ccccc3C(Br)C2(OC)C1=O (centres undefined) | > 100 µM (inactive) | – | > 100 µM (inactive) | – | > 100 µM (inactive) | – | – | – | –
9 | C/C(=N\NC(=O)C(N)=O)c1c(O)cc(C)oc1=O | > 100 µM (inactive) | – | > 100 µM (inactive) | > 100 µM (inactive) | > 100 µM (inactive) | – | – | – | –
10 | COC(=O)C1=C(\O)C[C@@]2(C)CC[C@@H](C(=O)OC)C2C/C=C\1C(=O)OC (some centres undefined) | > 100 µM (inactive) | > 100 µM (inactive) | > 100 µM (inactive) | > 100 µM (inactive) | > 100 µM (inactive) | – | – | – | –
11 | CCOC(=O)NC(=O)c1cn(CCCCCCOC(=O)NCCCCCCNC(=O)OCCCCCCn2cc(C(=O)NC(=O)OCC)c(=O)[nH]c2=O)c(=O)[nH]c1=O | > 100 µM (inactive) | > 100 µM (inactive) | > 100 µM (inactive) | – | > 100 µM (inactive) | – | – | – | –
12 | COc1ccc(S(=O)(=O)N/N=C/CN2C(=O)c3ccccc3C2=O)cc1OC | > 100 µM (inactive) | – | > 100 µM (inactive) | – | > 100 µM (inactive) | > 100 µM (inactive) | – | – | –
13 | CC12CCCC(C#N)(C1)OC2=O (centres undefined) | > 100 µM (inactive) | – | > 100 µM (inactive) | > 100 µM (inactive) | > 100 µM (inactive) | > 100 µM (inactive) | – | – | –
14 | CCOC(=O)C1C=C2O[C@@H]3OC4(CCCCC4)O[C@@H]3C2[C@H]2C(=O)C=CC(=O)[C@@]12C(=O)OC (some centres undefined) | 16.3 µM (inactive) | 15.7 µM (inactive) | 16 µM (inactive) | 6.49 µM (inactive) | 14.5 µM (inactive) | 7.29 µM (inactive) | – | – | –
15 | Nc1ccc(Cn2ccc3c4c(N)nc(N)nc4ccc32)cc1 | – | 10.2 µM (inactive) | 0.0834 µM (active) | 7.35 µM (inactive) | < 0.01 µM (active) | 1.5 µM (inactive) | 0.0351 µM (active) | 0.818 µM (active) | 0.219 µM (active)
16 | O=[N+]([O-])c1ccc(-c2ccc(-c3csc(Nc4ccccn4)n3)o2)cc1 | 35.4 µM (inactive) | – | 58.6 µM (inactive) | 28.2 µM (inactive) | > 100 µM (inactive) | 22.7 µM (inactive) | – | – | –
17 | COC(=O)c1c(-c2ccccc2)cc2c3cc(-c4ccccc4)c(C(=O)OC)n3c3ccccc3n12 | > 100 µM (inactive) | > 100 µM (inactive) | > 100 µM (inactive) | > 100 µM (inactive) | > 100 µM (inactive) | > 100 µM (inactive) | – | – | –
18 | CCC1=C(C[C@H]2NCCc3cc(OC)c(OC)cc32)C[C@H]2c3cc(OC)c(OC)cc3CCN2C1 | 0.0412 µM (active) | 0.667 µM (active) | 0.0251 µM (active) | 0.0388 µM (active) | 0.0288 µM (active) | – | – | – | –
